Data set [1] can be described thus: Pharmacokinetics study in rats. It is filed as in vivo, male Sprague-Dawley (SD) rats. The following applies: male SD rats; for AUC(0-inf) / half-life / clearance / Vd / bioavailability / AUC(0-t) / Cmax: Sprague-Dawley, rat, plasma; for clearance: mean±SD, read-out: plasma clearance (CL); for Vd: read-out: volume of distribution (Vdss). As for the experimental part:
Examples 12 and 14 were administered via a 30-minute intravenous (IV) infusion at approximately 1 mg/kg and orally at approximately 3 mg/kg to male Sprague-Dawley (SD) rats. The concentrations of Examples 12 and 14 in rat plasma was determined with an LC-MS/MS method.

The nature of data set [2]: Tissue distribution in rats. The format is in vivo, male Sprague-Dawley (SD) rats. To be noted: 2 hours post-dose, male SD rats; for Kp at 2 h / concentration at 2 h: Sprague-Dawley, rat. As for the experimental part:
Examples 12 and 14 were administered via a 30-minute intravenous (IV) infusion at approximately 2 mg/kg to jugular vein cannulated male Sprague-Dawley (SD) rats. All animals were euthanized by CO2 inhalation at 2 hours post-dose. The concentrations of Examples 12 and 14 in rat plasma and liver, heart and kidney tissues were determined with an LC-MS/MS method.

Data set [3] concerns the target THR-β/RXR-α (Homo sapiens (Human), UniProt P10828). In words: THR/RXR heterodimer assay (THR-β/RXR-α). The format is biochemical. To be noted: RXR heterodimer assay; for THRß-Selectivity: normalized to T3 activity.
In data set [4] the target is TR beta-LBD (Homo sapiens (Human), UniProt P10828). To be noted: TR-FRET; derived from T3-selectivity normalized data.
Chain of TR beta-LBD (P10828 whole entry, looked up, the tested form may be a part): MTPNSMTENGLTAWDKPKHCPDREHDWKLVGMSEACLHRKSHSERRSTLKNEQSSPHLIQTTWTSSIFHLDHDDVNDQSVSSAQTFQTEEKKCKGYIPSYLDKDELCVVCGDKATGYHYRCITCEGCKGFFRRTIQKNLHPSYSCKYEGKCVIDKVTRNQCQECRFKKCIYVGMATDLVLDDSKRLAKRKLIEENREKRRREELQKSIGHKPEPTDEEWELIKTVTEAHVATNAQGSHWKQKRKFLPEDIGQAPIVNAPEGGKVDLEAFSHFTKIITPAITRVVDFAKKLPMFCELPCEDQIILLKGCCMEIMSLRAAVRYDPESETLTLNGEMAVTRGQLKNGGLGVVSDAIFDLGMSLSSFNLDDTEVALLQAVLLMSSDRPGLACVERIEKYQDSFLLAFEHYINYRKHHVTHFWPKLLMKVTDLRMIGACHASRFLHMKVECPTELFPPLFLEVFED
Data set [5] addresses THR-α/RXR-α (Homo sapiens (Human), UniProt P10827). As to the kind of experiment: THR/RXR heterodimer assay (THR-α/RXR-α). It is filed as biochemical. The following applies: RXR heterodimer assay; read-out: EC50 THRα-het.

Like-named read-outs stand apart in the source and are kept apart here.

Chain of THR-β/RXR-α (P10828 202-461): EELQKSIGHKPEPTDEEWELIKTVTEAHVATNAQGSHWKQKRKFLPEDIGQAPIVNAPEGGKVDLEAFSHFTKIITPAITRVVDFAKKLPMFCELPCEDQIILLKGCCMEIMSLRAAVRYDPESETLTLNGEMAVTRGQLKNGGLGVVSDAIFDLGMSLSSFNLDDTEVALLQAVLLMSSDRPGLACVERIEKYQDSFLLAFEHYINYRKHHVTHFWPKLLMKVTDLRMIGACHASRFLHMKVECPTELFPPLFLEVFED
Chain of THR-β/RXR-α (P19793 225-462 partner): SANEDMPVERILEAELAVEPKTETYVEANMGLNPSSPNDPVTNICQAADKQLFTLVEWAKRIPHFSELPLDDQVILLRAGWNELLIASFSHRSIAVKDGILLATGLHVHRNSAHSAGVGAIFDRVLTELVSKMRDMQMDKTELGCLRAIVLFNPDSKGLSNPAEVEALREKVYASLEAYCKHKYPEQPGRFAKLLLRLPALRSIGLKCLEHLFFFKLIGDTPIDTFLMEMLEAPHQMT
Chain of THR-β/RXR-α (Q15596 679-703 partner): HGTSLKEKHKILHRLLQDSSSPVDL
Chain of THR-α/RXR-α (P10827 other isoform, or with tags, fused parts or gaps): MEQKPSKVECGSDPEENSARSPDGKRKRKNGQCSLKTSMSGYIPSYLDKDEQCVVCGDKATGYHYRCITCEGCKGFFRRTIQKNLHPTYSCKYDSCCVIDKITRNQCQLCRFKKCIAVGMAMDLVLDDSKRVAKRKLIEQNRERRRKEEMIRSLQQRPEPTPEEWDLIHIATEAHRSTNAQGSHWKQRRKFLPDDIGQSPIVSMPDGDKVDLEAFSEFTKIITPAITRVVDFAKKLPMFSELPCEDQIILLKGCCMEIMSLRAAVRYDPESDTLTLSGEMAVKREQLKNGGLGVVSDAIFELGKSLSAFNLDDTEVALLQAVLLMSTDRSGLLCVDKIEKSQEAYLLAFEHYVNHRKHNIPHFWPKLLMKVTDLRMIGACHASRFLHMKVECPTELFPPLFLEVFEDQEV
Chain of THR-α/RXR-α (P19793 225-462 partner): as the sequence (P19793 225-462 partner) above

On to `COc1nc2ccc(Oc3c(Cl)cc(-n4nc(C#N)c(=O)[nH]c4=O)cc3Cl)cc2n1C1(C)CC1` [Example 12, 2-(3,5-dichloro-4-((2-methoxy-1-(1-methylcyclopropyl)-1H-benzo[d]imidazol-6-yl)oxy)phenyl)-3,5-dioxo-2,3,4,5-tetrahydro-1,2,4-triazine-6-carbonitrile], for which, in data set [1] (IV infusion 1.09 mg/kg), the area under the curve AUC(0-inf) amounted to 3780 ± 704 ng·h/mL, the half-life was 2.67 ± 0.53 h, the clearance came out at 4.51 ± 0.883 mL/min/kg and the Vd stood at 0.638 ± 0.218 L/kg. The compound further had a bioavailability in data set [1] (oral 3.0 mg/kg vs IV 1.09 mg/kg) of 95.2%. In data set [1] (oral 3.0 mg/kg), the AUC(0-inf) was determined as 10800 ± 5630 ng·h/mL, the exposure AUC(0-t) was determined as 10800 ± 5630 ng·h/mL, the peak concentration (Cmax) turned out to be 2020 ± 793 ng/mL and the “time post-dose at which Cmax was reached” value worked out at 3.33 ± 1.15 h. For the same compound, the Kp at 2 h in data set [2] (heart/plasma, IV infusion 2.0 mg/kg, read-out: tissue/plasma ratio heart/plasma) was 1.65 ± 2.33. In addition, the concentration at 2 h in data set [2] (heart, IV infusion 2.0 mg/kg, read-out: tissue concentration in heart) worked out at 995 ± 1430 ng/g. In addition, the Kp at 2 h in data set [2] (kidney/plasma, IV infusion 2.0 mg/kg, read-out: tissue/plasma ratio kidney/plasma) was found to be 1.01 ± 0.212. Further, the concentration at 2 h in data set [2] (kidney, IV infusion 2.0 mg/kg, read-out: tissue concentration in kidney) worked out at 558 ± 103 ng/g. Also, the Kp at 2 h in data set [2] (liver/plasma, IV infusion 2.0 mg/kg, read-out: tissue/plasma ratio liver/plasma) came to 5.62 ± 1.09. Besides, the concentration at 2 h in data set [2] (liver, IV infusion 2.0 mg/kg, mean±SD, read-out: tissue concentration in liver) came to 3040 ± 350 ng/g. Further, in data set [2] (plasma, IV infusion 2.0 mg/kg, read-out: plasma concentration), the concentration at 2 h was 569 ± 145 ng/mL. In data set [3], this compound yielded a THRß-Selectivity of 18.7.

For `CC1(n2c(=O)[nH]c3ccc(Oc4c(Cl)cc(-n5nc(C#N)c(=O)[nH]c5=O)cc4Cl)cc32)CC1` [Example 14, 2-(3,5-dichloro-4-((3-(1-methylcyclopropyl)-2-oxo-2,3-dihydro-1H-benzo[d]imidazol-5-yl)oxy)phenyl)-3,5-dioxo-2,3,4,5-tetrahydro-1,2,4-triazine-6-carbonitrile], in data set [1] (IV infusion 1.09 mg/kg), the AUC(0-inf) came to 550 ± 19.6 ng·h/mL, the half-life was 1.51 ± 0.54 h, the clearance was found to be 30.3 ± 1.07 mL/min/kg and the Vd is 1.28 ± 0.387 L/kg. In data set [1] (oral 3.18 mg/kg vs IV 1.09 mg/kg), this compound showed a bioavailability of 11.5%. In data set [1] (oral 3.18 mg/kg), the AUC(0-inf) came to 190 ± 28.7 ng·h/mL, the AUC(0-t) is 178 ± 25.5 ng·h/mL, the Cmax came out at 31 ± 5.92 ng/mL and the “time post-dose at which Cmax was reached” value was found to be 4.0 ± 2.0 h. In data set [2] (IV infusion 2.16 mg/kg), the “tissue concentration in heart” value is “below the limit of detection”. In addition, the Kp at 2 h in data set [2] (kidney/plasma, IV infusion 2.16 mg/kg, read-out: tissue/plasma ratio kidney/plasma) stood at 6.25 ± 2.13. Besides, the concentration at 2 h in data set [2] (kidney, IV infusion 2.16 mg/kg, read-out: tissue concentration in kidney) came to 94 ± 23.5 ng/g. Further, in data set [2] (liver/plasma, IV infusion 2.16 mg/kg, read-out: tissue/plasma ratio liver/plasma), the Kp at 2 h is 29 ± 24.9. In addition, in data set [2] (liver, IV infusion 2.16 mg/kg, read-out: tissue concentration in liver), the concentration at 2 h was found to be 413 ± 303 ng/g. Also, the concentration at 2 h in data set [2] (plasma, IV infusion 2.16 mg/kg, read-out: plasma concentration) was found to be 15.5 ± 3.7 ng/mL. This compound registered a THRß-Selectivity in data set [3] of 12.0.

In turn, `CC(C)(C)n1c(=O)[nH]c2ccc(Oc3c(Cl)cc(-n4nc(C#N)c(=O)[nH]c4=O)cc3Cl)cc21` [Example 16, 2-(4-((3-(tert-butyl)-2-oxo-2,3-dihydro-1H-benzo[d]imidazol-5-yl)oxy)-3,5-dichlorophenyl)-3,5-dioxo-2,3,4,5-tetrahydro-1,2,4-triazine-6-carbonitrile] had a THRß-Selectivity in data set [3] of 9.8.

`O=C(Nc1cc(Cl)c(Oc2ccc3[nH]c(=O)n(C4(C(F)F)CC4)c3c2)c(Cl)c1)c1noc(=O)[nH]1` [Example 17, N-(3,5-dichloro-4-((3-(1-(difluoromethyl)cyclopropyl)-2-oxo-2,3-dihydro-1H-benzo[d]imidazol-5-yl)oxy)phenyl)-5-oxo-4,5-dihydro-1,2,4-oxadiazole-3-carboxamide]: in data set [3], the THRß-Selectivity turned out to be 10.1.

In data set [3], `N#Cc1nn(-c2cc(Cl)c(Oc3ccc4[nH]c(=O)n(C5(C(F)F)CC5)c4c3)c(Cl)c2)c(=O)[nH]c1=O` [Example 18, 2-(3,5-dichloro-4-((3-(1-(difluoromethyl)cyclopropyl)-2-oxo-2,3-dihydro-1H-benzo[d]imidazol-5-yl)oxy)phenyl)-3,5-dioxo-2,3,4,5-tetrahydro-1,2,4-triazine-6-carbonitrile] yielded a THRß-Selectivity of 8.2.

Turning to `Cn1c(=O)[nH]c2ccc(Oc3c(Cl)cc(NC(=O)c4noc(=O)[nH]4)cc3Cl)cc21` [Example 19, N-(3,5-dichloro-4-((3-methyl-2-oxo-2,3-dihydro-1H-benzo[d]imidazol-5-yl)oxy)phenyl)-5-oxo-4,5-dihydro-1,2,4-oxadiazole-3-carboxamide], the THRß-Selectivity in data set [3] came out at 5.3; in data set [4], 14.1.

For `COc1nc2ccc(Oc3c(Cl)cc(NC(=O)c4noc(=O)[nH]4)cc3Cl)cc2n1C1(C(F)(F)F)CC1` [Example 24], the EC50 stood at 3230 nM in data set [5] and 480 nM in data set [3] (read-out: EC50 THRß-het). In data set [3], this compound had a THRß-Selectivity of 6.7.

Source of the values: US20240059682A1, “THYROID HORMONE RECEPTOR BETA AGONIST COMPOUNDS” (Terns Pharmaceuticals, Inc., priority 2021, published 2024).
